In PubChem BioAssay (NCI):
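96-well plates; 48 h exposure; 5 concentrations. Endpoints by linear interpolation between flanking doses. Not reached: highest tested concentration assigned. At the GI50, growth is halved. TGI: total growth inhibition.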

Tests used:
Test in all cases: inhibition of tumour cell growth, NCI panel, 48 h
[1] = test system: HCC-2998 colon
[2] = test system: OVCAR-4 ovarian
[3] = test system: RPMI-8226 leukemia
[4] = test system: SF-268 CNS
[5] = test system: SK-MEL-5 melanoma
[6] = test system: U251 CNS
[7] = test system: UACC-257 melanoma
[8] = test system: UO-31 renal
[9] = test system: RXF 393 renal
[10] = test system: SR leukemia

| SMILES | TGI [1] [µM] | TGI [2] [µM] | TGI [3] [µM] | TGI [4] [µM] | TGI [5] [µM] | TGI [6] [µM] | TGI [7] [µM] | TGI [8] [µM] | GI50 [3] [µM] | GI50 [9] [µM] | TGI [9] [µM] | GI50 [4] [µM] | GI50 [5] [µM] | GI50 [10] [µM] | TGI [10] [µM] | GI50 [6] [µM] | GI50 [7] [µM] | GI50 [8] [µM] | GI50 [1] [µM] | GI50 [2] [µM] |
| --- | --- | --- | --- | --- | --- | --- | --- | --- | --- | --- | --- | --- | --- | --- | --- | --- | --- | --- | --- | --- |
| O=C(O)c1ccccc1NC(=O)C1CCCCC1 | > 100 | > 100 | > 100 | > 100 | > 100 | > 100 | > 100 | > 100 |  |  |  |  |  |  |  |  |  |  |  |  |
| COc1ccc(Nc2c3ccccc3nc3[nH]c4ccccc4c23)cc1 |  |  | 33.4 | > 50 | > 50 | 42.8 | > 50 | > 50 | 2.33 | > 50 | > 50 | 17.2 | 5.52 | 3.84 | > 50 | 11.7 | 21.2 | 38.9 |  |  |
| O=C(CC1C(=O)Nc2ccccc2S1=O)Nc1ccc(Cl)cc1 (stereo unspecified) | > 100 | > 100 | > 100 | > 100 |  | > 100 | > 100 | > 100 |  |  |  |  |  |  | > 100 |  |  |  |  |  |
| CC12Oc3ccc4ccccc4c3CC1Cc1c(ccc3ccccc13)O2 (stereo unspecified) | > 100 | 90.6 |  | > 100 |  | > 100 | > 100 | > 100 |  |  | 59.8 |  |  |  |  |  |  |  |  |  |
| O=[N+]([O-])c1ccc(S(=O)(=O)Cc2ccccc2)c2nonc12 |  | 34.1 | 64.2 | 39.3 | 36.5 | 36.1 | 30.1 | 45.1 |  |  | 33.5 |  |  |  | > 100 |  |  |  |  |  |
| CSc1cccc(NC(=O)OC2CCCCCCCCCCC2)c1 |  | 45.6 | 54.4 | > 100 | 29.1 | 41 | 38.7 | 22 |  |  | 70.9 |  |  |  | > 100 |  |  |  |  |  |
| Cc1c(Sc2ccccc2)[n+](=O)c2cc(Cl)c(Cl)cc2n1[O-] | > 100 | > 100 | > 100 | > 100 | > 100 | > 100 | 44.6 | > 100 | 51.7 | 23.2 | 90.1 | > 100 | 54.1 |  |  | > 100 | 16 | > 100 | 34.1 | 85.3 |
| O=[N+]([O-])c1ccc(Cl)cc1C1SCc2nc3ccccc3n21 (stereo unspecified) | > 100 | > 100 | > 100 | > 100 | 84.6 | > 100 | > 100 | > 100 |  |  | 73.3 |  |  |  |  |  |  |  |  |  |
| O=C1OC(OCC#CCOC2OC(=O)C(Cl)=C2Cl)C(Cl)=C1Cl (stereo unspecified) | 14.3 |  | 11.9 | 46.8 | 43.4 |  | 32.3 | 24 |  |  |  |  |  |  | 4.99 |  |  |  |  |  |
| O=C1OC(CN2CCOCC2)CN1/N=C/c1ccc([N+](=O)[O-])o1 (stereo unspecified) |  | > 100 | > 100 | > 100 | 63 | 98.6 | > 100 | > 100 |  |  |  |  |  |  | > 100 |  |  |  |  |  |
| O=S(=O)(C/C(=N\O)c1ccccc1)c1ccccc1 | > 100 | > 100 | > 100 | > 100 | > 100 | > 100 | > 100 | > 100 |  |  | > 100 |  |  |  |  |  |  |  |  |  |
| Cc1cc2c(C)n(Cc3ccc(Cl)cc3Cl)nc2c(C(=O)O)c1C | > 100 |  | > 100 | > 100 |  | > 100 | > 100 | > 100 |  |  | > 100 |  |  |  |  |  |  |  |  |  |
| Cc1ccccc1-n1c(C)nc(-c2ccccc2)cc1=O | > 100 | > 100 |  | > 100 | > 100 | > 100 | > 100 | > 100 |  |  | > 100 |  |  |  |  |  |  |  |  |  |
| O=C(Nc1ccc(Cl)c(Cl)c1)OCCN1c2ccccc2Sc2ccccc21 | > 10 | > 10 | > 10 | > 10 | > 10 | > 10 | > 10 |  |  |  |  |  |  |  | > 10 |  |  |  |  |  |
| CC1(C)OC(=O)C=C([O-])O1.CC1(C)OC(=O)C=C([O-])O1.CC[O-].CC[O-].[Ti+4] | > 100 | > 100 | > 100 | > 100 | > 100 | > 100 | > 100 | > 100 | > 100 |  |  | > 100 | > 100 | > 100 | > 100 | > 100 | > 100 | > 100 | > 100 | > 100 |
| COc1ccc2nc(NC(=O)C(=O)C(C#N)c3ccc(Cl)c(Cl)c3)sc2c1 (stereo unspecified) |  | > 100 | > 100 | > 100 | > 100 | > 100 | > 100 | > 100 |  |  | > 100 |  |  |  |  |  |  |  |  |  |
| O=C1C=CC(O)C2C1CC13SSC4(CC5C(=O)C=CC(O)C5N4C1=O)C(=O)N23 (stereo unspecified) |  | 4.89 | 0.093 | 5.85 | 1.06 | 1.28 | 0.768 | 1.27 |  |  | 1.48 |  |  |  | 0.0727 |  |  |  |  |  |
